Assay results taken from patent US20240383901A1, “SUBSTITUTED PYRROLO[2,3-D]PYRIMIDINES, THEIR PREPARATION AND THEIR THERAPEUTIC APPLICATION” (SANOFI, priority 2021, published 2024).

Assays:
full-length LRRK2 G2019S = biological target: T1, full-length LRRK2 G2019S (Homo sapiens, UniProt Q5S007, G2019S); test: LRRK2-G2019S kinase activity assay (Lanthascreen TR-FRET); assay type: biochemical; settings: 1.1 mM ATP
T1 construct: DYKDDDDK (FLAG)
Protocol: (§1) The potency of compounds was evaluated in vitro using the Lanthascreen® technology (ThermoFisher Scientific).
(§2) In a typical experiment, the reaction assay buffer contains 50 mM Tris pH8.2, 1 mM EGTA, 2.5 mM MgCl2, 0.05% Triton X100, 0.15% BSA and 1 mM DTT. The detection of the assay is performed using 1 nM Terbium labeled anti-phospho-LRRKtide (ThermoFisher Scientific) diluted in a TR-FRET buffer (ThermoFisher Scientific).
(§3) The experimental procedure was performed with Greiner small volume® 384-well. […] The working solution of compounds was prepared in a separate Greiner microplate.
(§4) The kinase reaction was initiated by addition of the ATP/LRRKtide substrate mix diluted in the reaction assay buffer. The reaction mix was incubated for at least 10 minutes at room temperature (initial velocity conditions). Reaction was stopped by addition of Terbium labeled anti-phospho-LRRKtide diluted into the detection buffer supplemented with EDTA (ThermoFisher Scientific). Plates are incubated for at least 30 minutes at room temperature and read on an Envision™ multimode plate reader (PerkinElmer) with LanthaScreen™. The TR-FRET 520:495 nm emission ratio was calculated and used to determine the IC50 value from a dose response curve fit to the 4-parameter logistic equation. The activity with respect to LRRK2 kinase in this test is given by the concentration which inhibits 50% of the LRRK2 activity (or IC50) in nM.

[1] = biological target: T2, full-length LRRK2 wild type (Homo sapiens, UniProt Q5S007); test: LRRK2 WT assay (Assay A, Lanthascreen TR-FRET, 500 uM ATP); assay type: biochemical; settings: Assay A (values without *)
T2 construct: DYDDDDK tagged full-length LRRK2 wild type is used
Protocol: as §1, §2, §3, §4

T1 sequence (Q5S007 whole entry G2019S): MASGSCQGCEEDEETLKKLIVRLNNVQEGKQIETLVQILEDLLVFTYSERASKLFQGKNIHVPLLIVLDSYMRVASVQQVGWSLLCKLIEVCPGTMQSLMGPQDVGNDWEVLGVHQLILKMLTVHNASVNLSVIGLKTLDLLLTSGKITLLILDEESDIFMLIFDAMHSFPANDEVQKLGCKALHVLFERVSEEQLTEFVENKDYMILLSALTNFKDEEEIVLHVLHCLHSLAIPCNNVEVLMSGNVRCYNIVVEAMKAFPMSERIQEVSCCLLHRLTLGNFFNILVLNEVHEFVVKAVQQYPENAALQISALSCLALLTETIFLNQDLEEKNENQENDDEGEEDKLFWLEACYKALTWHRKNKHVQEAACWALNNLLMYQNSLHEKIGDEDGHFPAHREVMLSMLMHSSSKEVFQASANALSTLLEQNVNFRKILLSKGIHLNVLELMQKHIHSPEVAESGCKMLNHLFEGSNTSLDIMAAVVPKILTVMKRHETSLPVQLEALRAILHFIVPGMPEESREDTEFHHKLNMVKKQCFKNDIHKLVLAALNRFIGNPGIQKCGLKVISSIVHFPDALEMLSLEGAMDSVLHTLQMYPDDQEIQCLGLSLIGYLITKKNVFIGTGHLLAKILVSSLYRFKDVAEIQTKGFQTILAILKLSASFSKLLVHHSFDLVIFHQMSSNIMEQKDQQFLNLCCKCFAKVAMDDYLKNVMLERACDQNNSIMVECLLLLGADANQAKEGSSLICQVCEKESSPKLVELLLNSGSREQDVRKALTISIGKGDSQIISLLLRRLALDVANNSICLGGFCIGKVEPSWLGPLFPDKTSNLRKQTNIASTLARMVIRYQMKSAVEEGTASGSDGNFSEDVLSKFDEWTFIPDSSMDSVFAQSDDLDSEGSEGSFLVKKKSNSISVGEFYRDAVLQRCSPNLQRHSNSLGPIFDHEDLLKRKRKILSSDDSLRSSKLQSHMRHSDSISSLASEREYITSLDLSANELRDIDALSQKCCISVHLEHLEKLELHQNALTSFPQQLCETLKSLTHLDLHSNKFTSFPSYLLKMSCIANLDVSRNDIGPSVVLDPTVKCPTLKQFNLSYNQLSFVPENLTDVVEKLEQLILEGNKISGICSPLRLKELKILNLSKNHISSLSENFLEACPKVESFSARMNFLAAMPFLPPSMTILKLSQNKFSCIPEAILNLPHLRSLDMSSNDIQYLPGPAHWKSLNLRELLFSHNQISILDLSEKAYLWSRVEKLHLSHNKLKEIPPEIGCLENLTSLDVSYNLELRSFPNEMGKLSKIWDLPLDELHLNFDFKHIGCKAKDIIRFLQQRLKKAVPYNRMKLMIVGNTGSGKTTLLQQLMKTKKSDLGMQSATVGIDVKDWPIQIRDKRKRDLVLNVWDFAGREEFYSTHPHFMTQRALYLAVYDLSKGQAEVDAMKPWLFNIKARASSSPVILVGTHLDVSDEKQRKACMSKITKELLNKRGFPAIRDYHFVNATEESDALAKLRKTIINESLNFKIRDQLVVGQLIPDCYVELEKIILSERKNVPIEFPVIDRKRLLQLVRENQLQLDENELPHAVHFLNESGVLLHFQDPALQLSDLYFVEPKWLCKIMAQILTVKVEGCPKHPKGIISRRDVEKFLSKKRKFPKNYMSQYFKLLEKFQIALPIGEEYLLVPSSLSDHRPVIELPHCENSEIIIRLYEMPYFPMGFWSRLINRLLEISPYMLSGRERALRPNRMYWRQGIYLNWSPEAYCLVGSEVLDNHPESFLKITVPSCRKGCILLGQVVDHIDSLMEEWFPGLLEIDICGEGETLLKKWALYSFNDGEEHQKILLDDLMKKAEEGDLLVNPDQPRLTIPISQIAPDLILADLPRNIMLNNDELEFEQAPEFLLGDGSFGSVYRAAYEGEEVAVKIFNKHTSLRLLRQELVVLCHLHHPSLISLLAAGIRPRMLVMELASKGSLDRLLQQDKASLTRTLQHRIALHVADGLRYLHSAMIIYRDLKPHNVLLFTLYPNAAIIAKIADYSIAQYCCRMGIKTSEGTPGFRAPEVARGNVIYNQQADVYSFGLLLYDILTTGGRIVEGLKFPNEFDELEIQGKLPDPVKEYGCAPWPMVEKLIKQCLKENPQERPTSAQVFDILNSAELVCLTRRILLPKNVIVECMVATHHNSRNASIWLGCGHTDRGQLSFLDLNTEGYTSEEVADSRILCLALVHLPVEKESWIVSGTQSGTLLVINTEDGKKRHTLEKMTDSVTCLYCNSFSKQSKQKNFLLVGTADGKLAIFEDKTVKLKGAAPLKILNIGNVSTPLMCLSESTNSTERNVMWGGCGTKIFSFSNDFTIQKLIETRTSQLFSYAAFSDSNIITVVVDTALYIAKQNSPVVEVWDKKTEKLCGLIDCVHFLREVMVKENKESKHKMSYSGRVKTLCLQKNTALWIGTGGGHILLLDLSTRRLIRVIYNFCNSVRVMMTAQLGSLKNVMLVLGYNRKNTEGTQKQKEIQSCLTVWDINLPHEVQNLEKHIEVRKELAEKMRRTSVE
T2 sequence (Q5S007 whole entry): as the sequence (Q5S007 whole entry G2019S) above, with S2019G counted along it

Row | SMILES | IC50 (full-length LRRK2 G2019S) [nM] | IC50 [1] [nM]
1 | C[C@@H]1OC[C@H]1n1c(C#N)cc2cnc(Nc3cn(C)nc3OC3COC3)nc21 (single isomer, unassigned) [Example 77, 7-[(trans)-2-methyloxetan-3-yl]-2-[[1-methyl-3-(oxetan-3-yloxy)pyrazol-4-yl]amino]pyrrolo[2,3-d]pyrimidine-6-carbonitrile] | 21 | 34
2 | CC(C)Oc1nn(C)cc1Nc1ncc2cc(C#N)n([C@@H]3CO[C@H]3C)c2n1 (single isomer, unassigned) [Example 78, 7-[(trans)-2-methyloxetan-3-yl]-2-[(1-methyl-3-propan-2-yloxypyrazol-4-yl)amino]pyrrolo[2,3-d]pyrimidine-6-carbonitrile] | 64 | 79
3 | CC(C)Oc1nn(C)cc1Nc1ncc2cc(C#N)n([C@@H]3CO[C@H]3C)c2n1 (single isomer, unassigned) [Example 79, 7-[(trans)-2-methyloxetan-3-yl]-2-[(1-methyl-3-propan-2-yloxypyrazol-4-yl)amino]pyrrolo[2,3-d]pyrimidine-6-carbonitrile] | 6 | 9
4 | COC[C@H](C)n1c(C#N)cc2cnc(Nc3cn(C)nc3O[C@@H]3CO[C@H]3C)nc21 (single isomer, unassigned) [Example 88] | 12 | 20
5 | [2H]C([2H])([2H])n1cc(Nc2ncc3cc(C#N)n([C@@H](C)COC)c3n2)c(O[C@@H]2CO[C@H]2C)n1 (single isomer, unassigned) [Example 90] | 8 | 16
6 | [2H]C([2H])([2H])n1cc(Nc2ncc3cc(C#N)n([C@@H](C)COC)c3n2)c(OC2COC2(C)C)n1 (single isomer, unassigned) [Example 99] | 36 | 34
7 | [2H]C([2H])([2H])n1cc(Nc2ncc3cc(C#N)n([C@@H](C)COC)c3n2)c(OC2COC2(C)C)n1 (single isomer, unassigned) [Example 100] | 39 | 40
8 | [2H]C([2H])([2H])n1cc(Nc2ncc3cc(C#N)n([C@@H](C)COC)c3n2)c(OC2CCOC2)n1 (single isomer, unassigned) [Example 101] | 34 | 40
9 | [2H]C([2H])([2H])n1cc(Nc2ncc3cc(C#N)n([C@@H](C)COC)c3n2)c(OC2CCOC2)n1 (single isomer, unassigned) [Example 102] | 41 | 39
10 | [2H]C([2H])([2H])n1cc(Nc2ncc3cc(C#N)n([C@H]4COC[C@@H]4C)c3n2)c(OC2COC(C)(C)C2)n1 (single isomer, unassigned) [Example 109] | 38 | 26
11 | [2H]C([2H])([2H])n1cc(Nc2ncc3cc(C#N)n([C@H]4COC[C@@H]4C)c3n2)c(OC2COC(C)(C)C2)n1 (single isomer, unassigned) [Example 110] | 8 | 4
12 | [2H]C([2H])([2H])n1cc(Nc2ncc3cc(C#N)n([C@H]4COC[C@@H]4C)c3n2)c(OC2CCOC2)n1 (single isomer, unassigned) [Example 111] | 22 | 17
13 | [2H]C([2H])([2H])n1cc(Nc2ncc3cc(C#N)n([C@H]4COC[C@@H]4C)c3n2)c(OC2CCOC2)n1 (single isomer, unassigned) [Example 112] | 16 | 13
14 | [2H]C([2H])([2H])n1cc(Nc2ncc3cc(C#N)n([C@H]4COC[C@@H]4C)c3n2)c(O[C@@H]2COC[C@H]2O)n1 (single isomer, unassigned) [Example 114] | 28 | 20
15 | [2H]C([2H])([2H])n1cc(Nc2ncc3cc(C#N)n([C@H]4COC[C@@H]4C)c3n2)c(O[C@@H]2COC[C@H]2O)n1 (single isomer, unassigned) [Example 115] | 17 | 14
16 | [2H]C([2H])([2H])n1cc(Nc2ncc3cc(C#N)n([C@@H](C)COC)c3n2)c(O[C@@H]2COC[C@H]2O)n1 (single isomer, unassigned) [Example 116] | 50 | 43
17 | [2H]C([2H])([2H])n1cc(Nc2ncc3cc(C#N)n([C@@H](C)COC)c3n2)c(O[C@@H]2COC[C@H]2O)n1 (single isomer, unassigned) [Example 117] | 50 | 34
18 | [2H]C([2H])([2H])n1cc(Nc2ncc3cc(C#N)n([C@H]4COC[C@@H]4C)c3n2)c(OC2COC2(C)C)n1 (single isomer, unassigned) [Example 118] | 29 | 14
19 | [2H]C([2H])([2H])n1cc(Nc2ncc3cc(C#N)n([C@H]4COC[C@@H]4C)c3n2)c(OC2COC2(C)C)n1 (single isomer, unassigned) [Example 119] | 17 | 12
20 | [2H]C([2H])([2H])n1cc(Nc2ncc3cc(C#N)n(C4CCOCC4)c3n2)c(OC2COC2(C)C)n1 (single isomer, unassigned) [Example 120, 2-((3-((2,2-dimethyloxetan-3-yl)oxy)-1-(methyl-d3)-1 H-pyrazol-4-yl)amino)-7-(tetrahydro-2H-pyran-4-yl)-7H-pyrrolo[2,3-d]pyrimidine-6-carbonitrile] | 179 | 173
21 | [2H]C([2H])([2H])n1cc(Nc2ncc3cc(C#N)n(C4CCOCC4)c3n2)c(OC2COC2(C)C)n1 (single isomer, unassigned) [Example 121, 2-((3-((2,2-dimethyloxetan-3-yl)oxy)-1-(methyl-d3)-1 H-pyrazol-4-yl)amino)-7-(tetrahydro-2H-pyran-4-yl)-7H-pyrrolo[2,3-d]pyrimidine-6-carbonitrile] | 181 | 133
22 | COCC(C)n1cc(Nc2ncc3cc(C#N)n(C4CCOCC4)c3n2)c(OC2CC2)n1 (single isomer, unassigned) [Example 126, 2-((3-cyclopropoxy-1-(1-methoxypropan-2-yl)-1 H-pyrazol-4-yl)amino)-7-(tetrahydro-2H-pyran-4-yl)-7H-pyrrolo[2,3-d]pyrimidine-6-carbonitrile] | 83 | 77
23 | COCC(C)n1cc(Nc2ncc3cc(C#N)n(C4CCOCC4)c3n2)c(OC2CC2)n1 (single isomer, unassigned) [Example 127, 2-((3-cyclopropoxy-1-(1-methoxypropan-2-yl)-1 H-pyrazol-4-yl)amino)-7-(tetrahydro-2H-pyran-4-yl)-7H-pyrrolo[2,3-d]pyrimidine-6-carbonitrile] | 183 | 144

Further lines, results first:

Row | IC50 (full-length LRRK2 G2019S) [nM] | IC50 [1] [nM] | SMILES
24 | 37 | 41 | COCC(C)n1cc(Nc2ncc3cc(C#N)n([C@@H](C)COC)c3n2)c(OC2COC2)n1 (single isomer, unassigned) [Example 129]
25 | 57 | 61 | COCC(C)n1cc(Nc2ncc3cc(C#N)n([C@@H](C)COC)c3n2)c(OC2COC2)n1 (single isomer, unassigned) [Example 130]
26 | 32 | 36 | [2H]C([2H])([2H])n1cc(Nc2ncc3cc(C#N)n([C@@H](C)COC)c3n2)c(OC2C(C)(C)C(O)C2(C)C)n1 (single isomer, unassigned) [Example 132]
27 | 14 | 13 | [2H]C([2H])([2H])n1cc(Nc2ncc3cc(C#N)n([C@@H](C)COC)c3n2)c(OC2C(C)(C)C(O)C2(C)C)n1 (single isomer, unassigned) [Example 133]
28 | 5 | 3 | [2H]C([2H])([2H])n1cc(Nc2ncc3cc(C#N)n([C@@H](C)COC)c3n2)c(OC2CC(O)C2(C)C)n1 (single isomer, unassigned) [Example 134]
29 | 39 | 43 | [2H]C([2H])([2H])n1cc(Nc2ncc3cc(C#N)n([C@@H](C)COC)c3n2)c(OC2CC(O)C2(C)C)n1 (single isomer, unassigned) [Example 135]
30 | 81 | 95 | [2H]C([2H])([2H])n1cc(Nc2ncc3cc(C#N)n([C@@H](C)COC)c3n2)c(O[C@@H]2COC[C@@H]2O)n1 (single isomer, unassigned) [Example 136]
31 | 54 | 44 | [2H]C([2H])([2H])n1cc(Nc2ncc3cc(C#N)n(C4COCC4C)c3n2)c(OC2CCC2(C)O)n1 (single isomer, unassigned) [Example 141]
32 | 258 | 325 | C[C@@H]1COCC[C@H]1n1c(C#N)cc2cnc(Nc3cn(CCO)nc3OC3COC3)nc21 (single isomer, unassigned) [Example 160, 2-((1-(2-hydroxyethyl)-3-(oxetan-3-yloxy)-1 H-pyrazol-4-yl)amino)-7-(trans-3-methyltetrahydro-2H-pyran-4-yl)-7H-pyrrolo[2,3-d]pyrimidine-6-carbonitrile]
33 | 14 | 7 | C[C@@H]1COCC[C@H]1n1c(C#N)cc2cnc(Nc3cn(CCO)nc3OC3COC3)nc21 (single isomer, unassigned) [Example 161, 2-((1-(2-hydroxyethyl)-3-(oxetan-3-yloxy)-1 H-pyrazol-4-yl)amino)-7-(trans-3-methyltetrahydro-2H-pyran-4-yl)-7H-pyrrolo[2,3-d]pyrimidine-6-carbonitrile]
